Where two headings read alike, the source gives them in different places.
Columns and labels:
[1] = target: T1, purified human recombinant MTH1 (human MTH1, residues 42-197) (Homo sapiens, UniProt P36639); assay: MTH1 enzymatic assay (luminescence-based, PPiLight); format: biochemical; details: 6 μM 8-oxo-dGTP, Table 1, grouped
T1 construct: human MTH1, residues 42-197, Uniprot-ID: P36639, expressed in E. coli; made in house; host or cells: E. coli
Method: The IC50 value was determined by a MTH1 enzymatic assay. The assay comprises the principal steps of incubating a mixture of MTH1, the compound in question at different concentrations and 8-oxo-2′-deoxyguanosine-5′-triphosphate (8-oxo-dGTP) in assay buffer. Nucleotide triphosphate hydrolysis by MTH1, i.e. decomposition of 8-oxo-2′-deoxyguanosine-5′-triphosphate, produces 8-oxo-2′-deoxyguanosine-5′-monophosphate (8-oxo-dGMP) and pyrophosphate (PPi). The amount of generated pyrophosphate (PPi) is then measured by a bioluminescent reaction. In detail: The MTH1 (human mutT homologue 1) enzymatic assay is performed as a luminescence-based 384-well assay. […] The assay buffer contains 100 mM Tris-acetate pH 7.5, 40 mM NaCl, 10 mM Mg(OAc)2, 0.005% Tween 20 and 2 mM dithiothreitol (DTT). […] Then, in a second step, the substrate 8-oxo-dGTP is added and the reaction mixture is incubated for 30 minutes at 22° C. The pharmacologically relevant assay volume is 5 PI. The final concentrations in the assay during incubation of the reaction mixture are 0.1-0.2 nM, typically 0.1 nM, MTH1 and 6 μM 8-oxo-dGTP. After incubation of the reaction mixture, the generation of pyrophosphate (PPi) as a result of nucleotide triphosphate (8-oxo-dGTP) hydrolysis by MTH1 is detected using the PPiLight inorganic pyrophosphate assay kit (Lonza) (third step). 2 to 5 μl, such as 3 to 5 μl, typically 3 or 4 μl, for instance 4 μl, of a 1:1 mixture of PPiLight converting reagent (AMP) and PPiLight detection reagent are added to the reaction mixture. In the presence of pyrophosphate, the detection reagent catalyzes the conversion of AMP to ATP. Luciferase then produces light from the newly formed ATP and luciferin. The amount of light produced is directly proportional to the amount of PPi in the sample. Following signal development for 1 h the plates are analysed in an EnVision (PerkinElmer) microplate reader using the ultra sensitive luminescence option. Data are processed employing the Genedata Screener software. In particular, IC50 values are determined in the usual manner (using the Hill Equation) by fitting a dose-response curve to the data points using nonlinear regression analysis.
Hill Equation: Y=S0+(Sinf−S0)/(1+(10^logIC50/10^c)^n); Y: luminescence signal (response), S0: activity level at zero concentration of test compound, Sinf=activity level at infinite concentration, Hill coefficient n=measure of the slope at IC50, c=concentration in logarithmic units corresponding to the values on the x-axis of the dose response curve plot

[2] = target: T2, humanMTH1 (aminoacids 42 to 197) (Homo sapiens, UniProt P36639); assay: Binding affinities and kinetics on MTH1 surfaces by surface plasmon resonance (SPR); details: for Kd: SPR, Biacore4000, 25° C., Table 1, grouped, read-out: KD IC50; for residence time: on MTH1, calculated on the basis of the KD values
T2 construct: humanMTH1 (aminoacids 42 to 197); His tag at the N-terminus; purchased Abnova ab99390; host or cells: E. coli
Method: The SPR experiments were performed using a Biacore4000 instrument. […] HumanMTH1 was immobilized on Biacore CM5 chips at 25° C. and a flow rate of 10 μL/min using amine coupling at pH 5.5 and in presence of 1 μM MSC2567771B-1 according to Biacore's standard protocol. MTH1 was applied at a concentration of 10 μg/mL and depending on the duration of the injection time immobilization levels between 500 and 2,000 RU were obtained. Sample compounds were applied in form of titration series with a doubling of concentration at each subsequent injection. In general, 10 concentrations were injected covering a dilution range of 500 fold. Before and after each of these titration series the binding capability of the surface was controlled by the injection of the positive control S-Crizotinib at a fixed concentration of 2 μM. Kinetic titration experiments were performed at 25° C. with a flow rate of 30 μL/min, a sample contact time of 90 sec and a dissociation time of 420 sec in running buffer (20 mM Tris-HCl (Tris(hydroxymethyl)-aminomethane HCl) pH 7.40, 150 mM NaCl, 5 mM MgCl2, 1 mM DTT (dithiothreitol), 0.1 mM EGTA (ethylene glycol tetraacetic acid), 0.05% Tween 20) containing 2% DMSO (dimethyl sulfoxide). Buffer injections identical to the sample injections were executed at the beginning of the successive series for the purpose of double referencing. Solvent correction cycles (eight correction points, 1.4%-2.8% DMSO) were run at the same intervals. For surface conditioning ten start-up cycles (buffer injections) were run. Data points were collected at a sample rate of 10 Hz.
Data sets were processed and analyzed using the software Biacore4000 Evaluation, version 1.0. Solvent corrected and double-referenced association and dissociation phase data were fitted to a simple 1:1 interaction model with mass transport limitations.
Measured values are indicated as KD IC50 in the Table below.

SMILES	IC50 [1] [nM]	Kd [2] [nM]	residence time ([2]; read-out: Residence time) [min]	residence time [2] [min]
Nc1nc(NC2CC2)cc(N2CCC[C@H]2Cc2ccccc2Cl)n1 [Example 48, 6-[(S)-2-(2-Chloro-benzyl)-pyrrolidin-1-yl]-N4-cyclopropyl-pyrimidine-2,4-diamine]	1 to 100	1 to 100		
Nc1nc(NC2CC2)cc(N2CC[C@@](O)(C(F)(F)F)C2)n1 [Example 49, (S)-1-(2-Amino-6-cyclopropylamino-pyrimidin-4-yl)-3-trifluoromethyl-pyrrolidin-3-ol]	< 1	1 to 100		
Nc1nc(NC2CC2)cc(N2CC[C@](O)(C(F)(F)F)C2)n1 [Example 50, (R)-1-(2-Amino-6-cyclopropylamino-pyrimidin-4-yl)-3-trifluoromethyl-pyrrolidin-3-ol]	1 to 100	1 to 100		
Nc1nc(NC2CC2)cc(N2CCCc3ccccc32)n1 [Example 51, N4-Cyclopropyl-6-(3,4-dihydro-2H-quinolin-1-yl)-pyrimidine-2,4-diamine]	< 1	1 to 100		
C[C@@]1(O)CCN(c2cc(NC3CC3)nc(N)n2)C1 [Example 52, (R)-1-(2-Amino-6-cyclopropylamino-pyrimidin-4-yl)-3-methyl-pyrrolidin-3-ol]	1 to 100	1 to 100		
C[C@]1(O)CCN(c2cc(NC3CC3)nc(N)n2)C1 [Example 53, (S)-1-(2-Amino-6-cyclopropylamino-pyrimidin-4-yl)-3-methyl-pyrrolidin-3-ol]	1 to 100	1 to 100		
CC1Cc2ccccc2N1c1cc(NC2CC2)nc(N)n1 (stereo not drawn) [Example 58, N4-Cyclopropyl-6-(2-methyl-2,3-dihydro-indol-1-yl)-pyrimidine-2,4-diamine]	1 to 100	1 to 100		
CNc1cc(N2CC[C@H](O)C2)nc(N)n1 [Example 62, (S)-1-(2-Amino-6-methylamino-pyrimidin-4-yl)-pyrrolidin-3-ol]	1 to 100	1 to 100		
Nc1nc2c(c(N3CCC(F)(F)C3)n1)CCCN2 [Example 63, 4-(3,3-Difluoro-pyrrolidin-1-yl)-5,6,7,8-tetrahydro-pyrido[2,3-d]pyrimidin-2-ylamine]	< 1	1 to 100		
Nc1nc(NCC2CCCC2)cc(N2CCC(F)(F)C2)n1 [Example 76, N4-Cyclopentylmethyl-6-(3,3-difluoro-pyrrolidin-1-yl)-pyrimidine-2,4-diamine]	1 to 100	1 to 100		
COc1ccccc1CCNc1cc(N2CCC(F)(F)C2)nc(N)n1 [Example 77, 6-(3,3-Difluoro-pyrrolidin-1-yl)-N4-[2-(2-methoxy-phenyl)-ethyl]-pyrimidine-2,4-diamine]	1 to 100	1 to 100		
NC(=O)[C@H]1CCN(c2nc(N)nc3c2CCCN3)C1 [Example 78, (S)-1-(2-Amino-5,6,7,8-tetrahydro-pyrido[2,3-d]pyrimidin-4-yl)-pyrrolidine-3-carboxylic acid amide-formiate]	< 1	1 to 100		
CNc1cc(N2CCCCC2c2cc3ccccc3o2)nc(N)n1 (stereo not drawn) [Example 81, 6-(2-Benzofuran-2-yl-piperidin-1-yl)-N4-methyl-pyrimidine-2,4-diamine]	< 1	1 to 100		
CNc1cc(N2CCCC2Cc2ccc(Cl)cc2)nc(N)n1 (stereo not drawn) [Example 84, 6-[2-(4-Chloro-benzyl)-pyrrolidin-1-yl]-N4-methyl-pyrimidine-2,4-diamine]	< 1	1 to 100		
CNc1cc(N2CCCC2Cc2cccc(Cl)c2)nc(N)n1 (stereo not drawn) [Example 85, 6-[2-(3-Chloro-benzyl)-pyrrolidin-1-yl]-N4-methyl-pyrimidine-2,4-diamine]	< 1	< 1		
Nc1nc(NC2CC2)cc(N2C[C@H](O)CC2=O)n1 [Example 86, (R)-1-(2-Amino-6-cyclopropylamino-pyrimidin-4-yl)-4-hydroxy-pyrrolidin-2-one]	> 100	> 100		
CCCCOC(=O)CC1CCCN1c1cc(NC2CC2)nc(N)n1 (stereo not drawn) [Example 87, [1-(2-Amino-6-cyclopropylamino-pyrimidin-4-yl)-pyrrolidin-2-yl]-acetic acid butyl ester]	1 to 100	1 to 100		
Nc1nc(NC2CC2)cc(N2CCCC2C(=O)NCc2ccccc2Cl)n1 (stereo not drawn) [Example 88, 1-(2-Amino-6-cyclopropylamino-pyrimidin-4-yl)-pyrrolidine-2-carboxylic acid 2-chloro-benzylamide]	> 100	> 100		
CNc1cc(N2CCC[C@H]2Cc2ccccc2OC)nc(N)n1 [Example 92, 6-[(S)-2-(2-Methoxy-benzyl)-pyrrolidin-1-yl]-N4-methyl-pyrimidine-2,4-diamine]	< 1		≥ 10	
Nc1nc(NC2CC2)cc(N2CCCC2=O)n1 [Example 94, 1-(2-Amino-6-cyclopropylamino-pyrimidin-4-yl)-pyrrolidin-2-one]	> 100	> 100		
CNc1cc(N2CCCCC2Cc2ccc(OC)cc2)nc(N)n1 (stereo not drawn) [Example 95, 6-[2-(4-Methoxy-benzyl)-piperidin-1-yl]-N4-methyl-pyrimidine-2,4-diamine]	< 1		≥ 10	
Nc1nc(NC2CC2)cc(N2CCCC2CC(=O)O)n1 (stereo not drawn) [Example 97, [1-(2-Amino-6-cyclopropylamino-pyrimidin-4-yl)-pyrrolidin-2-yl]acetic acid]	1 to 100	> 100		
CNc1cc(N2CCCC2Cc2ccccc2Cl)nc(N)n1 (stereo not drawn) [Example 98, 6-[2-(2-Chloro-benzyl)-pyrrolidin-1-yl]-N4-methyl-pyrimidine-2,4-diamine]	< 1	1 to 100	≥ 10	
CNc1cc(N2CCCCC2Cc2ccccc2OC)nc(N)n1 (stereo not drawn) [Example 100, 6-[2-(2-Methoxy-benzyl)-piperidin-1-yl]-N4-methyl-pyrimidine-2,4-diamine]	< 1	1 to 100	≥ 10	
CNc1cc(N2CCCCC2Cc2ccccc2Cl)nc(N)n1 (stereo not drawn) [Example 105, 6-[2-(2-Chloro-benzyl)-piperidin-1-yl]-N4-methyl-pyrimidine-2,4-diamine]	< 1	1 to 100	≥ 10	
CNc1cc(N2CC(C(=O)NCCc3ccc(S(=O)(=O)F)cc3)C2)nc(N)n1 [Example 108, 4-(2-{[1-(2-Amino-6-methylamino-pyrimidin-4-yl)-azetidine-3-carbonyl]-amino}-ethyl)-benzenesulfonyl fluoride]	< 1			≥ 10
CNc1cc(N2CCCC2Cc2cccc(C)c2)nc(N)n1 (stereo not drawn) [Example 112, N4-Methyl-6-[2-(3-methyl-benzyl)-pyrrolidin-1-yl]-pyrimidine-2,4-diamine]	< 1	1 to 100		
